Data as given in ChEMBL document CHEMBL1134888, “Preliminary structure-antiangiogenic activity relationships of 4-senecioyloxymethyl-6,7-dimethoxycoumarin” (Bioorg Med Chem Lett, 2002).
Values after ≈ are worked out from the molar mass of the structure shown.

Assays:
B16 [1] = experiment: In vitro inhibition of B16 (murine melanoma) tumor cell growth.; details: Mus musculus
HCT-116 [2] = experiment: In vitro inhibition of HCT116 (human colon) tumor cell growth.; type: functional, cell-based
HUVEC (Homo sapiens) [3] = experiment: Inhibitory percentage in HUVEC tube formation assay at a concentration of 3 ug/mL; Inactive
HUVEC (Homo sapiens) [4] = experiment: Inhibitory percentage in HUVEC tube formation assay at a concentration of 3 ug/mL (toxic)
HUVEC (Homo sapiens) [5] = experiment: Inhibitory percentage in HUVEC tube formation assay at a concentration of 1 ug/mL (toxic)
B16 [6] = experiment: Concentration required for 50% reduction in B16 tumor cell growth (murine melanoma) was measured; NA denotes […]
HCT-116 [7] = experiment: Concentration required for 50% reduction in HCT116 tumor cell growth (Human colon) was measured; NA denotes […]; type: functional, cell-based

SMILES | IC50 (B16 [1]) [µg/mL] | IC50 (HCT-116 [2]) [µg/mL] | also measured
CC(C)=CC(=O)OCc1cc(=O)oc2cc3c(cc12)OCO3 | > 10 | > 10 | –
COc1cc2oc(=O)cc(COC(=O)C=C(C)C)c2cc1OC | > 10 | > 10 | –
COc1cc2oc(=O)cc(COC(=O)/C=C/c3ccc(O)cc3)c2cc1OC | 4.15 (≈ 10.9 µM) | 5.21 (≈ 13.6 µM) | –
COc1cc2oc(=O)cc(COC(=O)/C=C/c3ccc(N)cc3)c2cc1OC | > 10 | > 10 | –
C/C=C/C(=O)OCc1cc(=O)oc2cc(OC)c(OC)cc12 | > 10 | > 10 | inhibition at 3 µg/mL (HUVEC (Homo sapiens) [3]): < 10%
COc1ccc(/C=C/C(=O)OCc2cc(=O)oc3cc(OC)c(OC)cc23)cc1O | 3 (≈ 7.27 µM) | 3.41 (≈ 8.27 µM) | inhibition at 3 µg/mL (HUVEC (Homo sapiens) [4]): 35.5%
COc1cc2oc(=O)cc(COC(=O)/C=C/c3ccccc3)c2cc1OC | > 10 | > 10 | –
COc1ccc2oc(=O)cc(COC(=O)C=C(C)C)c2c1 | > 10 | > 10 | inhibition at 3 µg/mL (HUVEC (Homo sapiens) [3]): < 10%
COc1cc2oc(=O)cc(COC(=O)/C=C/c3cc(OC)c(OC)c(OC)c3)c2cc1OC | 6.74 (≈ 14.8 µM) | 8.31 (≈ 18.2 µM) | –
COc1ccc(/C=C/C(=O)OCc2cc(=O)oc3cc(OC)c(OC)cc23)cc1 | 0.96 (≈ 2.42 µM) | 1.02 (≈ 2.57 µM) | inhibition at 1 µg/mL (HUVEC (Homo sapiens) [5]): 100%
COc1cccc2c1C(=O)c1c(O)c3c(c(O)c1C2=O)C[C@@](O)(C(=O)CO)C[C@@H]3O[C@H]1C[C@H](N)[C@H](O)[C@H](C)O1 [DOXORUBICIN] | 0.09 (≈ 0.166 µM) | 0.11 (≈ 0.202 µM) | –
COc1ccc2c(COC(=O)C=C(C)C)cc(=O)oc2c1 | > 10 | > 10 | inhibition at 3 µg/mL (HUVEC (Homo sapiens) [3]): < 10%
C=CC(=O)OCc1cc(=O)oc2cc(OC)c(OC)cc12 | > 10 | > 10 | inhibition at 3 µg/mL (HUVEC (Homo sapiens) [3]): < 10%
COc1cc2oc(=O)cc(COC(=O)/C=C/c3ccc(OCCN(C)C)cc3)c2cc1OC.Cl | > 10 | > 10 | –
Br.COc1ccc(/C=C/C(=O)OCc2cc(=O)oc3cc(OC)c(OC)cc23)cn1 | 1.27 | 2.43 | –
COc1ccc(/C=C/C(=O)OCc2cc(O)nc3cc(OC)c(OC)cc23)cc1 | > 10 | > 10 | –
CC(C)=CC(=O)OCc1cc(=O)oc2cc3ccccc3cc12 | > 10 | > 10 | –
Cc1ccc(C(=O)Nc2ccc(S(=O)(=O)O)c3cc(S(=O)(=O)O)cc(S(=O)(=O)O)c23)cc1NC(=O)c1cccc(NC(=O)Nc2cccc(C(=O)Nc3cc(C(=O)Nc4ccc(S(=O)(=O)O)c5cc(S(=O)(=O)O)cc(S(=O)(=O)O)c45)ccc3C)c2)c1 [SURAMIN] | – | – | IC50 (B16 [6]): Not Active; IC50 (HCT-116 [7]): Not Active
CC(C)=CC(=O)OCc1cc(=O)oc2ccc(Cl)cc12 | > 10 | > 10 | –
COc1cc2oc(=O)cc(COC(=O)/C=C/c3ccc(Cl)cc3)c2cc1OC | > 10 | > 10 | –
